Source: ChEMBL document CHEMBL4715697, “Synthesis and biological activity of benzamide DNA minor groove binders” (2016)

Assays:
Type in all cases: functional
RPMI-8226 = test: Growth inhibition of human RPMI-8226 cells assessed as cell growth at 1 uM incubated for 48 hrs by sulforhodamine B assay relative to control; conditions: read-out: Activity
OVCAR-3 [1] = test: Growth inhibition of human OVCAR-3 cells incubated for 48 hrs by sulforhodamine B assay
SK-MEL-2 [2] = test: Growth inhibition of human SK-MEL-2 cells assessed as cell growth at 100 uM incubated for 48 hrs by sulforhodamine B assay relative to control; conditions: read-out: Activity
SF-539 = test: Growth inhibition of human SF-539 cells incubated for 48 hrs by sulforhodamine B assay
OVCAR-3 [3] = test: Growth inhibition of human OVCAR-3 cells assessed as cell growth at 100 uM incubated for 48 hrs by sulforhodamine B assay relative to control; conditions: read-out: Activity
CCRF-CEM = test: Growth inhibition of human CCRF-CEM cells assessed as cell growth at 100 uM incubated for 48 hrs by sulforhodamine B assay relative to control; conditions: read-out: Activity
OVCAR-3 [4] = test: Growth inhibition of human OVCAR-3 cells assessed as cell growth at 0.01 uM incubated for 48 hrs by sulforhodamine B assay relative to control; conditions: read-out: Activity
HCC 2998 [5] = test: Growth inhibition of human HCC 2998 cells assessed as cell growth at 0.1 uM incubated for 48 hrs by sulforhodamine B assay relative to control; conditions: read-out: Activity
UACC-257 = test: Growth inhibition of human UACC-257 cells incubated for 48 hrs by sulforhodamine B assay
NCI-H460 = test: Growth inhibition of human NCI-H460 cells assessed as cell growth at 0.1 uM incubated for 48 hrs by sulforhodamine B assay relative to control; conditions: read-out: Activity
NCI-H322M [6] = test: Growth inhibition of human NCI-H322M cells assessed as cell growth at 1 uM incubated for 48 hrs by sulforhodamine B assay relative to control; conditions: read-out: Activity
NCI-H322M [7] = test: Growth inhibition of human NCI-H322M cells incubated for 48 hrs by sulforhodamine B assay
SK-MEL-2 [8] = test: Growth inhibition of human SK-MEL-2 cells incubated for 48 hrs by sulforhodamine B assay
TK-10 [9] = test: Growth inhibition of human TK-10 cells assessed as cell growth at 0.01 uM incubated for 48 hrs by sulforhodamine B assay relative to control; conditions: read-out: Activity
EKVX = test: Growth inhibition of human EKVX cells incubated for 48 hrs by sulforhodamine B assay
786-0 = test: Growth inhibition of human 786-0 cells assessed as cell growth at 0.1 uM incubated for 48 hrs by sulforhodamine B assay relative to control; conditions: read-out: Activity
HT-29 = test: Growth inhibition of human HT-29 cells assessed as cell growth at 0.01 uM incubated for 48 hrs by sulforhodamine B assay relative to control; conditions: read-out: Activity
Malme-3M = test: Growth inhibition of human Malme-3M cells assessed as cell growth at 1 uM incubated for 48 hrs by sulforhodamine B assay relative to control; conditions: read-out: Activity
BT-549 = test: Growth inhibition of human BT-549 cells incubated for 48 hrs by sulforhodamine B assay
SK-MEL-28 = test: Growth inhibition of human SK-MEL-28 cells assessed as cell growth at 100 uM incubated for 48 hrs by sulforhodamine B assay relative to control; conditions: read-out: Activity
M14 = test: Growth inhibition of human M14 cells assessed as cell growth at 1 uM incubated for 48 hrs by sulforhodamine B assay relative to control; conditions: read-out: Activity
MDA-MB-435 = test: Growth inhibition of human MDA-MB-435 cells assessed as cell growth at 0.01 uM incubated for 48 hrs by sulforhodamine B assay relative to control; conditions: read-out: Activity
DU-145 = test: Growth inhibition of human DU-145 cells assessed as cell growth at 0.1 uM incubated for 48 hrs by sulforhodamine B assay relative to control; conditions: read-out: Activity
UO-31 = test: Growth inhibition of human UO-31 cells assessed as cell growth at 100 uM incubated for 48 hrs by sulforhodamine B assay relative to control; conditions: read-out: Activity
OVCAR-8 = test: Growth inhibition of human OVCAR-8 cells assessed as cell growth at 100 uM incubated for 48 hrs by sulforhodamine B assay relative to control; conditions: read-out: Activity
TK-10 [10] = test: Growth inhibition of human TK-10 cells incubated for 48 hrs by sulforhodamine B assay
CAKI-1 [11] = test: Growth inhibition of human CAKI-1 cells assessed as cell growth at 1 uM incubated for 48 hrs by sulforhodamine B assay relative to control; conditions: read-out: Activity
SF-295 = test: Growth inhibition of human SF-295 cells assessed as cell growth at 100 uM incubated for 48 hrs by sulforhodamine B assay relative to control; conditions: read-out: Activity
NCI/ADR-RES = test: Growth inhibition of human NCI/ADR-RES cells incubated for 48 hrs by sulforhodamine B assay
HL-60(TB) = test: Growth inhibition of human HL-60(TB) cells assessed as cell growth at 0.01 uM incubated for 48 hrs by sulforhodamine B assay relative to control; conditions: read-out: Activity
HCC 2998 [12] = test: Growth inhibition of human HCC 2998 cells assessed as cell growth at 1 uM incubated for 48 hrs by sulforhodamine B assay relative to control; conditions: read-out: Activity
RXF 393 = test: Growth inhibition of human RXF 393 cells assessed as cell growth at 100 uM incubated for 48 hrs by sulforhodamine B assay relative to control; conditions: read-out: Activity
CAKI-1 [13] = test: Growth inhibition of human CAKI-1 cells assessed as cell growth at 0.01 uM incubated for 48 hrs by sulforhodamine B assay relative to control; conditions: read-out: Activity
[14] = read-out: LC50 (the source's name)
[15] = read-out: pLC50 (the source's name) (converted)

CC(=O)Nc1cc(CCl)cc(NC(=O)c2ccc(C(=O)Nc3cccc(NC(=O)CCCN(C)C)c3)cc2)c1
growth at 1 µM (RPMI-8226): 116%
GI50 (OVCAR-3 [1]; read-out: GI50): > 100 µM
LC50 (50% lethal concentration) (OVCAR-3 [1]; read-out: LC50): > 100 µM
TGI (OVCAR-3 [1]; read-out: TGI): > 100 µM
GI50 (OVCAR-3 [1]; read-out: pGI50 (converted)): > 100 µM
LC50 (50% lethal concentration) (OVCAR-3 [1]; read-out: pLC50 (converted)): > 100 µM
TGI (OVCAR-3 [1]; read-out: pTGI): > 100 µM
growth at 100 µM (SK-MEL-2 [2]): 116%
GI50 (SF-539; read-out: GI50): > 100 µM
CC50 (SF-539; [14]): > 100 µM
TGI (SF-539; read-out: TGI): > 100 µM
GI50 (SF-539; read-out: pGI50 (converted)): > 100 µM
CC50 (SF-539; [15]): > 100 µM
TGI (SF-539; read-out: pTGI): > 100 µM
growth at 100 µM (OVCAR-3 [3]): 105%
growth at 100 µM (CCRF-CEM): -70%
growth at 0.01 µM (OVCAR-3 [4]): 112%
growth at 0.1 µM (HCC 2998 [5]): 94%
GI50 (UACC-257; read-out: GI50): > 100 µM
LC50 (UACC-257; read-out: LC50): > 100 µM
TGI (UACC-257; read-out: TGI): > 100 µM
GI50 (UACC-257; read-out: pGI50 (converted)): > 100 µM
LC50 (UACC-257; read-out: pLC50 (converted)): > 100 µM
TGI (UACC-257; read-out: pTGI): > 100 µM
growth at 0.1 µM (NCI-H460): 106%
growth at 1 µM (NCI-H322M [6]): 100%
GI50 (NCI-H322M [7]; read-out: GI50): > 100 µM
CC50 (NCI-H322M [7]; [14]): > 100 µM
TGI (NCI-H322M [7]; read-out: TGI): > 100 µM
GI50 (NCI-H322M [7]; read-out: pGI50 (converted)): > 100 µM
CC50 (NCI-H322M [7]; [15]): > 100 µM
TGI (NCI-H322M [7]; read-out: pTGI): > 100 µM
GI50 (SK-MEL-2 [8]; read-out: GI50): > 100 µM
CC50 (SK-MEL-2 [8]; [14]): > 100 µM
TGI (SK-MEL-2 [8]; read-out: TGI): > 100 µM
GI50 (SK-MEL-2 [8]; read-out: pGI50 (converted)): > 100 µM
CC50 (SK-MEL-2 [8]; [15]): > 100 µM
TGI (SK-MEL-2 [8]; read-out: pTGI): > 100 µM
growth at 0.01 µM (TK-10 [9]): 99%
GI50 (EKVX; read-out: GI50): > 100 µM
LC50 (EKVX; read-out: LC50): > 100 µM
TGI (EKVX; read-out: TGI): > 100 µM
GI50 (EKVX; read-out: pGI50 (converted)): > 100 µM
LC50 (EKVX; read-out: pLC50 (converted)): > 100 µM
TGI (EKVX; read-out: pTGI): > 100 µM
growth at 0.1 µM (786-0): 104%
growth at 0.01 µM (HT-29): 103%
growth at 1 µM (Malme-3M): 97%
GI50 (BT-549; read-out: GI50): > 100 µM
CC50 (BT-549; [14]): > 100 µM
TGI (BT-549; read-out: TGI): > 100 µM
GI50 (BT-549; read-out: pGI50 (converted)): > 100 µM
CC50 (BT-549; [15]): > 100 µM
TGI (BT-549; read-out: pTGI): > 100 µM
growth at 100 µM (SK-MEL-28): 92%
growth at 1 µM (M14): 103%
growth at 0.01 µM (MDA-MB-435): 96%
growth at 0.1 µM (DU-145): 106%
growth at 100 µM (UO-31): 113%
growth at 100 µM (OVCAR-8): 96%
GI50 (TK-10 [10]; read-out: GI50): > 100 µM
CC50 (TK-10 [10]; [14]): > 100 µM
TGI (TK-10 [10]; read-out: TGI): > 100 µM
GI50 (TK-10 [10]; read-out: pGI50 (converted)): > 100 µM
CC50 (TK-10 [10]; [15]): > 100 µM
TGI (TK-10 [10]; read-out: pTGI): > 100 µM
growth at 1 µM (CAKI-1 [11]): 95%
growth at 100 µM (SF-295): 38%
GI50 (NCI/ADR-RES; read-out: GI50): > 100 µM
CC50 (NCI/ADR-RES; [14]): > 100 µM
TGI (NCI/ADR-RES; read-out: TGI): > 100 µM
GI50 (NCI/ADR-RES; read-out: pGI50 (converted)): > 100 µM
CC50 (NCI/ADR-RES; [15]): > 100 µM
TGI (NCI/ADR-RES; read-out: pTGI): > 100 µM
growth at 0.01 µM (HL-60(TB)): 86%
growth at 1 µM (HCC 2998 [12]): 96%
growth at 100 µM (RXF 393): 96%
growth at 0.01 µM (CAKI-1 [13]): 100%
